Source: patent US6740335B1, “Liposomal camptothecin formulations” (priority 1997, dated 2004)
Counter-ions that a name gives are not always drawn.

How the values were obtained:
[1] = tested on: SKOV-3 (ovarian carcinoma); test: 3H-thymidine incorporation cytotoxicity assay, SKOV-3; format: cell-based, human; conditions: Homo sapiens, SK-OV-3; SKOV-3, 42 h; read-out: Median IC50
Method: In vitro efficacy screening has been performed using GI147211 and liposomal formulations of GI147211. […] Standard tumor cell-based cytototoxicity assays assessing ^3H-thymidine incorporation were performed.
Tumor cells were seeded into 96-well tissue culture plates (1×10^4 cells/well)≡4 h prior to experimentation. […] Positive and negative (Tris treated) control groups were included on each assay plate. Tumor cells were then labeled with 0.25 μCi of [methyl-^3H] thymidine and incubated for 42 h under tissue culture conditions (37° C., 5% CO2, 100% relative humidity), except for C6, U251, A673 and B16-F1 cells which were incubated for 24 h. Cells were then lysed, harvested onto glass-fiber filters and unincorporated [methyl-^3H] thymidine removed by filter washing. Filters were processed for scintillation counting and cpm-^3H/well determined. […] Data are presented from multiple sets of experimentation, involving multiple liposomal formulations of GI147211.

KB Tumor Xenograft = test: HSPC vs DSPC liposomal GI147211 repeat-dose study, KB xenograft; format: in vivo, nude mice; conditions: 14 mg/kg iv, two drug doses
From the text: On a day 1 and day 8 dose schedule and after two weeks rest the same cycle of therapy was repeated with doses delivered on day 23 and day 30.

CCC1(O)C(=O)OCc2c1cc1n(c2=O)Cc2c-1nc1cc3c(cc1c2CN1CCN(C)CC1)OCCO3 (stereo in doubt) [GI147211, 7-(4-methylpiperazinomethylene)-10,11-ethylenedioxy-20(S)-camptothecin dihydrochloride]
IC50 [1]: 1.63 ng/mL | Cures (tumor-free animals at day 60) (KB Tumor Xenograft): 0/8 | Log Cell Kill Index (KB Tumor Xenograft): 0.81 | T − C (to achieve 400% tumor volume increase) (KB Tumor Xenograft): 13.4 | Toxic Deaths (KB Tumor Xenograft): 0/8 | % TGI (KB Tumor Xenograft; day 18): 77.5%
